Assay results published in patent US20230210831A1, “CHRONIC KIDNEY DISEASE TREATMENT OR PREVENTION METHOD” (Japan Tobacco Inc., priority 2019, published 2023).
“And” between values parts separate entries of the source, which are not always exact repeats. Equal entries are not always repeated.

What was measured:
Assay type in all cases: cell-based
[1] = system: Salmonella typhimurium TA1537; assay: Ames test (reverse mutation test), TA1537
Procedure: (§1) The solvent used herein was dimethyl sulfoxide (DMSO, 100 µL/plate).
(§2) The mixtures were preincubated at 37° C. for 20 minutes while shaking. […] Two plates per treatment were used.

[2] = system: Salmonella typhimurium TA98; assay: Ames test (reverse mutation test), TA98
Procedure: as §1, §2

[3] = system: Escherichia coli WP2uvrA; assay: Ames test (reverse mutation test), WP2uvrA; conditions: WP2uvrA
Procedure: as §1, §2

[4] = system: Salmonella typhimurium TA1535; assay: Ames test (reverse mutation test), TA1535
Procedure: as §1, §2

[5] = system: Salmonella typhimurium TA100; assay: Ames test (reverse mutation test), TA100
Procedure: as §1, §2

With `COc1ccc2nc3cc(Cl)ccc3c(NCCCNCCCl)c2c1` [ICR-191] the “Number of revertant colonies TA1537” value ([1]; S9 Mix -, dose 1.0 µg/plate, positive control) was 1448 and 1435 and 1413 and 1096 and 1397 and the “Number of revertant colonies” value ([1]; TA1537, -S9 mix, 1.0 µg/plate (positive control)) was 1170 and 1131.

For `CC(C)(C)Oc1cccc(-c2cc(N)nn2-c2ccccc2)c1` [Metabolite C], the “Number of revertant colonies” value ([2]; TA98, +S9 mix, 2.34 µg/plate) was 38, the “Number of revertant colonies” value ([2]; TA98, +S9 mix, 4.69 µg/plate) was 36 and the “Number of revertant colonies” value ([2]; TA98, +S9 mix, 9.38 µg/plate) was 73. For the same molecule, the “Number of revertant colonies” value ([2]; TA98, +S9 mix, 18.8 µg/plate) was 107, the “Number of revertant colonies” value ([2]; TA98, +S9 mix, 37.5 µg/plate) was 133 and the “Number of revertant colonies” value ([2]; TA98, +S9 mix, 75 µg/plate) was 153. The “Number of revertant colonies” value ([2]; TA98, +S9 mix, 150 µg/plate) was 133, the “Number of revertant colonies” value ([2]; TA98, +S9 mix, 300 µg/plate) was 138 and the “Number of revertant colonies” value ([2]; TA98, -S9 mix, 2.3 µg/plate) was 14. The “Number of revertant colonies” value ([2]; TA98, -S9 mix, 6.9 µg/plate) was 15, the “Number of revertant colonies” value ([2]; TA98, -S9 mix, 21 µg/plate) was 17 and the “Number of revertant colonies” value ([2]; TA98, -S9 mix, 62 µg/plate) was 8. For the same molecule, the “Number of revertant colonies” value ([2]; TA98, -S9 mix, 185 µg/plate) was 8, the “Number of revertant colonies” value ([2]; TA98, -S9 mix, 556 µg/plate) was 8 and the “Number of revertant colonies” value ([2]; TA98, -S9 mix, 1667 µg/plate) was 8. The “Number of revertant colonies” value ([2]; TA98, -S9 mix, 5000 µg/plate) was 0, the “potential to induce reverse mutations” value ([2]; TA98 with S9 mix) was “showed potential to induce reverse mutations” and the “Number of revertant colonies” value ([3]; +S9 mix, 2.3 µg/plate) was 28. For the same molecule, the “Number of revertant colonies” value ([3]; +S9 mix, 6.9 µg/plate) was 23, the “Number of revertant colonies” value ([3]; +S9 mix, 21 µg/plate) was 21 and the “Number of revertant colonies” value ([3]; +S9 mix, 62 µg/plate) was 26. For the same molecule, the “Number of revertant colonies” value ([3]; +S9 mix, 185 µg/plate) was 17, the “Number of revertant colonies” value ([3]; +S9 mix, 556 µg/plate) was 8 and the “Number of revertant colonies” value ([3]; +S9 mix, 1667 µg/plate) was 12. The “Number of revertant colonies” value ([3]; +S9 mix, 5000 µg/plate) was 16, the “Number of revertant colonies” value ([3]; -S9 mix, 2.3 µg/plate) was 15 and the “Number of revertant colonies” value ([3]; -S9 mix, 6.9 µg/plate) was 16. The “Number of revertant colonies” value ([3]; -S9 mix, 21 µg/plate) was 17, the “Number of revertant colonies” value ([3]; -S9 mix, 62 µg/plate) was 13 and the “Number of revertant colonies” value ([3]; -S9 mix, 185 µg/plate) was 13. For the same molecule, the “Number of revertant colonies” value ([3]; -S9 mix, 556 µg/plate) was 13, the “Number of revertant colonies” value ([3]; -S9 mix, 1667 µg/plate) was 10 and the “Number of revertant colonies” value ([3]; -S9 mix, 5000 µg/plate) was 11. For the same molecule, the “Number of revertant colonies” value ([4]; TA1535, +S9 mix, 2.3 µg/plate) was 8, the “Number of revertant colonies” value ([4]; TA1535, +S9 mix, 6.9 µg/plate) was 8 and the “Number of revertant colonies” value ([4]; TA1535, +S9 mix, 21 µg/plate) was 5. For the same molecule, the “Number of revertant colonies” value ([4]; TA1535, +S9 mix, 62 µg/plate) was 4, the “Number of revertant colonies” value ([4]; TA1535, +S9 mix, 185 µg/plate) was 5 and the “Number of revertant colonies” value ([4]; TA1535, +S9 mix, 556 µg/plate) was 4. The “Number of revertant colonies” value ([4]; TA1535, +S9 mix, 1667 µg/plate) was 5, the “Number of revertant colonies” value ([4]; TA1535, +S9 mix, 5000 µg/plate) was 4 and the “Number of revertant colonies” value ([4]; TA1535, -S9 mix, 21 µg/plate) was 6. For the same molecule, the “Number of revertant colonies” value ([4]; TA1535, -S9 mix, 556 µg/plate) was 0, the “Number of revertant colonies” value ([1]; TA1537, +S9 mix, 2.3 µg/plate) was 6 and the “Number of revertant colonies” value ([1]; TA1537, +S9 mix, 6.9 µg/plate) was 7. For the same molecule, the “Number of revertant colonies” value ([1]; TA1537, +S9 mix, 21 µg/plate) was 7, the “Number of revertant colonies” value ([1]; TA1537, +S9 mix, 62 µg/plate) was 9 and the “Number of revertant colonies” value ([1]; TA1537, +S9 mix, 185 µg/plate) was 9. For the same molecule, the “Number of revertant colonies” value ([1]; TA1537, +S9 mix, 556 µg/plate) was 4, the “Number of revertant colonies” value ([1]; TA1537, +S9 mix, 1667 µg/plate) was 4 and the “Number of revertant colonies” value ([1]; TA1537, +S9 mix, 5000 µg/plate) was 5. For the same molecule, the “Number of revertant colonies” value ([1]; TA1537, -S9 mix, 2.3 µg/plate) was 3, the “Number of revertant colonies” value ([1]; TA1537, -S9 mix, 6.9 µg/plate) was 1 and the “Number of revertant colonies” value ([1]; TA1537, -S9 mix, 21 µg/plate) was 3. For the same molecule, the “Number of revertant colonies” value ([1]; TA1537, -S9 mix, 62 µg/plate) was 3, the “Number of revertant colonies” value ([1]; TA1537, -S9 mix, 185 µg/plate) was 2 and the “Number of revertant colonies” value ([1]; TA1537, -S9 mix, 556 µg/plate) was 0. The “Number of revertant colonies” value ([1]; TA1537, -S9 mix, 1667 µg/plate) was 0, the “Number of revertant colonies” value ([1]; TA1537, -S9 mix, 5000 µg/plate) was 0 and the “Number of revertant colonies” value ([5]; TA100, +S9 mix, 2.34 µg/plate) was 526. For the same molecule, the “Number of revertant colonies” value ([5]; TA100, +S9 mix, 4.69 µg/plate) was 778, the “Number of revertant colonies” value ([5]; TA100, +S9 mix, 9.38 µg/plate) was 1210 and the “Number of revertant colonies” value ([5]; TA100, +S9 mix, 18.8 µg/plate) was 1745. The “Number of revertant colonies” value ([5]; TA100, +S9 mix, 37.5 µg/plate) was 2049, the “Number of revertant colonies” value ([5]; TA100, +S9 mix, 75 µg/plate) was 2147 and the “Number of revertant colonies” value ([5]; TA100, +S9 mix, 150 µg/plate) was 2043. For the same molecule, the “Number of revertant colonies” value ([5]; TA100, +S9 mix, 300 µg/plate) was 1412, the “Number of revertant colonies” value ([5]; TA100, -S9 mix, 2.3 µg/plate) was 87 and the “Number of revertant colonies” value ([5]; TA100, -S9 mix, 6.9 µg/plate) was 99. The “Number of revertant colonies” value ([5]; TA100, -S9 mix, 21 µg/plate) was 48, the “Number of revertant colonies” value ([5]; TA100, -S9 mix, 62 µg/plate) was 41 and the “Number of revertant colonies” value ([5]; TA100, -S9 mix, 185 µg/plate) was 45. The “Number of revertant colonies” value ([5]; TA100, -S9 mix, 556 µg/plate) was 33, the “Number of revertant colonies” value ([5]; TA100, -S9 mix, 1667 µg/plate) was 25 and the “Number of revertant colonies” value ([5]; TA100, -S9 mix, 5000 µg/plate) was 35. For the same molecule, the “potential to induce reverse mutations” value ([5]; TA100 with S9 mix) was “showed potential to induce reverse mutations”.
